Where no end group is shown, it is not given here. The star is where a group is joined. Biotin = O=C1N[C@H]2[C@H](CS[C@H]2CCCCC(=O)*)N1
B1: EID2 WT peptide (aa 197-217) (peptide)
peptide: Biotin-SGSGQRNPHRVDLDILTFTIALTAS
notes: also called wild-type peptide; long EID2 peptide; source: synthetic peptide (Mimotopes); not shown: biotin-SGSG spacer, N-terminal, kept

Tests used:
MAGEC2(129-339) protein = test: PEPSCAN ELISA of EID2 mutant peptides; format: binding, human; details: His-S-MAGEC2(129-339) 200-400 nM, 450 nm; for binding affinity to MAGEC2 relative to wild-type peptide: biotinylated peptide 400 nM on streptavidin-coated plates, 4°C overnight, anti-His/peroxidase, TMB, mean of 3 independent measurements, background = His-hTRF2 control; for binding affinity to MAGEC2 compared with wild-type peptide (in words): biotinylated peptide 400 nM, 3 independent measurements
Procedure: A peptide library of the alanine mutant peptides (Table 1) of the aa 197-217 region of the human EID2 protein was obtained from Mimotopes (Australia). The library was linked to biotin via an additional peptide spacer of serine–glycine–serine–glycine. Each well on ELISA 96-well plates was coated with 100 µl of 5 µg/ml streptavidin (Sigma), incubated overnight at 37°C and then blocked with 3% bovine serum albumin (BSA) in PBS for 2 h at room temperature. The biotinylated peptides (400 nM, in PBS with 0.1% BSA) were applied into wells to saturate their surface and incubated at room temperature for 1 h. The plates were washed three times with 0.1% Tween 20 in PBS and then His-S-MAGEC2(129-339) protein was added (200–400 nM). Plates were incubated at 4°C overnight before washing (as above) to remove unbound protein. First anti-His antibody (Sigma; diluted 1/1000 in PBS with 1% BSA) was incubated for 2 h, washed three times and secondary peroxidase-conjugated rabbit-antiserum against mouse immunoglobulins (DAKO; diluted 1/1000 in PBS with 1% BSA) was added for 1 h (at 4°C). Peroxidase enzyme activity was measured with tetramethylbenzidine and the results were monitored using an automatic ELISA plate reader at a wavelength 450 nm.

necdin (aa 1-321) = test: Pull-down of biotin-tagged EID2 peptides on streptavidin-agarose beads; format: binding, human; details: in vitro translated necdin, 2 h at 4°C in PBS, SDS-PAGE, phosphorimaging
Procedure: Biotin-tagged EID2 peptides were preincubated overnight with streptavidin-agarose beads (Thermo Scientfic) at 4°C. The beads were washed 2 times with 0.1% Tween 20 in PBS buffer, then in vitro-expressed proteins in a total volume of 200 µl PBS buffer were added and incubated for 2 h at 4°C. The beads were washed 4 times with 0.1% Tween 20 in PBS buffer and the bound proteins were eluted in SDS sample buffer and boiled. Input, unbound, and bound fractions of the in vitro expressed proteins were separated by SDS-PAGE and analyzed by phosphorimaging (FLA-7000, Fujifilm). The bound fractions were analyzed by dot blotting to ensure equal EID2 peptide levels were used in pull down assays (data not shown).

His-S-MAGEC2(129-339) = molecular target: T1, His-S-MAGEC2(129-339) (human, UniProt Q9UBF1 129-339); test: ELISA; PEPSCAN ELISA; biotinylated EID2 peptides (400 nM) on streptavidin-coated plates; His-S-MAGEC2(129-339) 200–400 nM, 4°C overnight; anti-His detection; details: both partners purified
T1 construct: source: E. coli C41, purified (His-TRAP column, FPLC)
T1 sequence (looked up): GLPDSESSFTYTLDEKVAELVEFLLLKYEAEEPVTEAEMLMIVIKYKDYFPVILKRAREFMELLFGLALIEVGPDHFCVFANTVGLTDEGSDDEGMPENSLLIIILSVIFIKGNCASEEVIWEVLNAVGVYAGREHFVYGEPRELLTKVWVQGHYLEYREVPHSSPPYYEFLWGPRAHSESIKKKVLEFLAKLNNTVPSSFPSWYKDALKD

Row | Molecule | binding affinity to MAGEC2 relative to wild-type peptide (MAGEC2(129-339) protein) | binding result (His-S-MAGEC2(129-339)) | further results
1 | QRNPHRVDLDIATFTIALTAS [peptide #12, EID2 alanine mutant peptide L208A] | ~30 % of WT affinity |  | 
2 | QRNPHRVDLAILTFTIALTAS [peptide #10, EID2 alanine mutant peptide D206A] | ~30 % of WT affinity |  | 
3 | QANPHRVDLDILTFTIALTAS [peptide #2, EID2 alanine mutant peptide R198A] | < 20 % of WT affinity |  | binding of necdin to peptide (pull-down, in words) (necdin (aa 1-321)): comparable to the wild-type peptide; binding affinity to MAGEC2 compared with wild-type peptide (in words) (MAGEC2(129-339) protein): significantly reduced
4 | ARNPHRVDLDILTFTIALTAS [peptide #1, EID2 alanine mutant peptide Q197A] | ~30 % of WT affinity |  | binding of necdin to peptide (pull-down, in words) (necdin (aa 1-321)): comparable to the wild-type peptide; binding affinity to MAGEC2 compared with wild-type peptide (in words) (MAGEC2(129-339) protein): significantly reduced
5 | QRNPHRVALDILTFTIALTAS [peptide #8, EID2 alanine mutant peptide D204A] |  |  | binding affinity to MAGEC2 compared with wild-type peptide (in words) (MAGEC2(129-339) protein): comparable to that of the wild-type peptide
6 | QRNPHRVDLDILTFTIAATAS [peptide #17, EID2 alanine mutant peptide L214A] | < 20 % of WT affinity |  | 
7 | QRNPHRVDADILTFTIALTAS [peptide #9, EID2 alanine mutant peptide L205A] | ~30 % of WT affinity |  | 
8 | QRNPHRVDLDILTFTAALTAS [peptide #16, EID2 alanine mutant peptide I212A] | < 20 % of WT affinity |  | binding of necdin to peptide (pull-down, in words) (necdin (aa 1-321)): significantly reduced
9 | QRNPHRVDLDILTFTIALTAA [peptide #19, EID2 alanine mutant peptide S217A] | ~30 % of WT affinity |  | 
10 | QRNPHRVDLDALTFTIALTAS [peptide #11, EID2 alanine mutant peptide I207A] | ~30 % of WT affinity |  | 
11 | QRNPHRVDLDILTFTIALAAS [peptide #18, EID2 alanine mutant peptide T215A] | ~30 % of WT affinity |  | 
12 | QRNPHRVDLDILTATIALTAS [peptide #14, EID2 alanine mutant peptide F210A] | < 20 % of WT affinity |  | binding of necdin to peptide (pull-down, in words) (necdin (aa 1-321)): significantly reduced
13 | QRNPHAVDLDILTFTIALTAS [peptide #6, EID2 alanine mutant peptide R202A] | < 20 % of WT affinity |  | 
14 | Biotin-SGSGQRNPARVDLDILTFTIALTAS (source: synthetic peptide (Mimotopes)) [EID2 peptide #5] |  | binds | 
15 | Biotin-SGSGQRNPHRVDLDILTFAIALTAS (source: synthetic peptide (Mimotopes)) [EID2 peptide #15] |  | binds | 
16 | Biotin-SGSGQRNAHRVDLDILTFTIALTAS (source: synthetic peptide (Mimotopes)) [EID2 peptide #4] |  | binds | 
17 | Biotin-SGSGQRAPHRVDLDILTFTIALTAS (source: synthetic peptide (Mimotopes)) [EID2 peptide #3] |  | binds | 
18 | Biotin-SGSGQRNPHRVALDILTFTIALTAS (source: synthetic peptide (Mimotopes)) [EID2 peptide #8 (D204A)] |  | binds | 
19 | B1 |  | binds | 
20 | Biotin-SGSGQRNPHRADLDILTFTIALTAS (source: synthetic peptide (Mimotopes)) [EID2 peptide #7] |  | binds | 
21 | Biotin-SGSGQRNPHRVDLDILAFTIALTAS (source: synthetic peptide (Mimotopes)) [EID2 peptide #13] |  | binds | 

— paper PMC3335016, “Analysis of the Nse3/MAGE-Binding Domain of the Nse4/EID Family Proteins” (PLoS ONE, 2012)
